Results reported in patent US20240002387A1, “METHOD FOR PREPARING BTK DEGRADING AGENT” (HAISCO PHARMACEUTICALS PTE. LTD., priority 2020, published 2024).

How the values were obtained:
BTK C481S = BTK C481S (Homo sapiens (Human), UniProt Q06187, C481S); assay: In vitro kinase detection, BTK C481S; assay type: biochemical
Protocol: (§1) Kinases BTK wt (Carna, Cat. No. 08-180) and BTK C481S (Cama, Cat. No. 08-547) were prepared into a 2.5× kinase solution, and the substrates FAM-P2 (GL Biochem, Cat. No. 112394) and ATP (Sigma, Cat. No. A7699-1G) were prepared into a 2.5× substrate solution, respectively. 5 μL of compounds at different concentrations were added to a 384-well plate. 10 μl of 2.5× kinase solution was added, and the resulting mixture was incubated at room temperature for 10 min. 10 μL of 2.5× substrate solution was added, and the mixture was incubated at 28° C. for an appropriate period of time. The reaction was stopped by adding 30 μL of stop buffer, and the detection was carried out by using Caliper EZ reader2. The IC50 value was calculated by using XLFit excel add-in version 5.4.0.8 software. The calculation formula of the inhibition rate was shown in formula (3), wherein max denoted the readout of the DMSO control, min denoted the readout of the negative control, and conversion denoted the readout of the compound

BTK wt = BTK wt (Homo sapiens (Human), UniProt Q06187); assay: In vitro kinase detection, BTK wt; assay type: biochemical
Protocol: as §1

BTK [1] = target: BTK (Mus musculus (Mouse), UniProt P35991); assay: Detection of BTK protein degradation in spleen of mice; assay type: in vivo
Protocol: Female ICR mice, 6-8 weeks old, were purchased from BEIJING VITAL RIVER LABORATORY ANIMAL TECHNOLOGY CO., LTD., and the experiment was started after 3 days of acclimatization. After intragastric administration of different doses of the compound for 3 consecutive days, the spleen of mice was taken, the spleen cells were collected, and RIPA lysis buffer (Beyotime, Cat. P0013B) was added. The cells were lysed on ice for 15 minutes and centrifuged at 12000 rpm at 4° C. for 10 minutes. The protein sample of the supernatant was collected, the protein was quantified by using the BCA kit (Beyotime, Cat. P0009), and then the protein was diluted to 0.25 mg/mL. The expressions of BTK (CST, Cat. 8547S) and the internal reference (3-actin (CST, Cat. 3700S) were detected using a fully automated western blot quantitative analyzer (Proteinsimple). The expression level of BTK relative to the internal reference was calculated using Compass software, and the DD50 value was calculated using Origen9.2 software according to formula (2). Specifically, the BTKadministration denoted the expression level of BTK in administration groups at different doses, and the BTKvehicle denoted the expression level of BTK in the vehicle control group.
BTK %=BTKadministration/BTKvehicle×100 formula (2)

BTK [2] = target: BTK (Homo sapiens (Human), UniProt Q06187); assay: Detection of BTK degradation in Mino cells; assay type: cell-based
Protocol: Mino human mantle cell lymphoma cell line was purchased from ATCC and cultured under the following conditions: RPMI-1640+15% FBS+1% double antibody in a 37° C., 5% CO2 incubator. Cells were plated in a 6-well plate, with 5×10^5 cells/well. After plating, the compounds at different concentrations were added and cultured in an incubator at 37° C. under 5% CO2 for 48 hours. After culturing, the cells were collected, and RIPA lysis buffer (Beyotime, Cat. P0013B) was added. The cells were lysed on ice for 15 minutes and centrifuged at 12000 rpm at 4° C. for 10 minutes. The protein sample of the supernatant was collected, and the protein was quantified by using the BCA kit (Beyotime, Cat. P0009), and then the protein was diluted to 0.25 mg/mL. The expressions of BTK (CST, Cat. 8547S) and the internal reference (3-actin (CST, Cat. 3700S) were detected using a fully automated western blot quantitative analyzer (Proteinsimple) with a kit (Protein simple, Cat. SM-W004). The expression level of BTK relative to the internal reference was calculated using Compass software, and the DC50 value was calculated using Origen9.2 software according to formula (1). Specifically, the BTK administration denoted the expression level of BTK in administration groups at different doses, and the BTK vehicle denoted the expression level of BTK in the vehicle control group. […]

Chain of BTK C481S (Q06187 whole entry C481S): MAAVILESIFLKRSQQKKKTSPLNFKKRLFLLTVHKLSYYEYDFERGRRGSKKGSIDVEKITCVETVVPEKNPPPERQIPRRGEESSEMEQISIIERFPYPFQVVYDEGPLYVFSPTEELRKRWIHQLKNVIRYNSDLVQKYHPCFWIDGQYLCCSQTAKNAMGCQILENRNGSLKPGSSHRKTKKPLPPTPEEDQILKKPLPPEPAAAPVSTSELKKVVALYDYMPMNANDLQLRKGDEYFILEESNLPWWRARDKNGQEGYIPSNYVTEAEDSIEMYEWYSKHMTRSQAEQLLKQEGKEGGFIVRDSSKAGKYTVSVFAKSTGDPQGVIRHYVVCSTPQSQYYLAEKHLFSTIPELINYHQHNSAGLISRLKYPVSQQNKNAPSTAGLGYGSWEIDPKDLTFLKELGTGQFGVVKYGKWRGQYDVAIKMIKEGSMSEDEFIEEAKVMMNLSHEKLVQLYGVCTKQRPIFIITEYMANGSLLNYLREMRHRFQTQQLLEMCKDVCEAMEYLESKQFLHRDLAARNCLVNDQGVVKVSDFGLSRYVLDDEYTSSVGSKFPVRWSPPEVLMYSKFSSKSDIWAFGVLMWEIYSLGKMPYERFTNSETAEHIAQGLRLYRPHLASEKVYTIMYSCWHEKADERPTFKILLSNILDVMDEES
Chain of BTK wt (Q06187 whole entry): as the sequence (Q06187 whole entry C481S) above, with S481C counted along it
Chain of BTK (Homo sapiens (Human), UniProt Q06187) (Q06187 whole entry): as the sequence (Q06187 whole entry C481S) above, with S481C counted along it
Chain of BTK (Mus musculus (Mouse), UniProt P35991) (P35991 whole entry): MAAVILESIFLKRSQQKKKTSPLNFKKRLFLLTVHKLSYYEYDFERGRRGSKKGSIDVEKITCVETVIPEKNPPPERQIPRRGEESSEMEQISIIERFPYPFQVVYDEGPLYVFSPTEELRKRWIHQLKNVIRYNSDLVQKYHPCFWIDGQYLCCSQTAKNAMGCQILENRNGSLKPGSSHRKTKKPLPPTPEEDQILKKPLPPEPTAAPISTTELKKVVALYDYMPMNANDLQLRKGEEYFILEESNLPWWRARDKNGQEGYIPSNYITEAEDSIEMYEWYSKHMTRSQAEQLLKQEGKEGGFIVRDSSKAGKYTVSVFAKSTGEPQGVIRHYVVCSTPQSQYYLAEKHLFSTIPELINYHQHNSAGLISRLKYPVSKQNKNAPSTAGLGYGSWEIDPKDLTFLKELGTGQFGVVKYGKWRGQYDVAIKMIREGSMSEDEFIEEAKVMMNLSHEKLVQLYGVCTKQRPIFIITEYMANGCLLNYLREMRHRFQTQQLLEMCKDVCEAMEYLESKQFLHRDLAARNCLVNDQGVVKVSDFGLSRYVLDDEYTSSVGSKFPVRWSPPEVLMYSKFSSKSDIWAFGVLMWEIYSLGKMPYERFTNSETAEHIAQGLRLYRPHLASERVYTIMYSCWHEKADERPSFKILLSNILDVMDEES

Q: Which IC50 (BTK C481S) does the source give for Nc1ncnc2c1c(-c1ccc(Oc3ccccc3)cc1)nn2C1CCN(C2CN(C3CN(c4ccc5c(c4)C(=O)N(C4CCC(=O)NC4=O)C5=O)C3)C2)CC1 (stereo not shown) [Compound 1, 5-[3-[3-[4-[4-amino-3-(4-phenoxyphenyl]pyrazolo[3,4-d]pyrimidin-1-yl]-1-piperidyl]azetidin-1-yl]azetidin-1-yl]-2-(2,6-dioxo-3-piperidyl)isoindoline-1,3-dione] here?
A: Its IC50 is 8 nM.

Q: What about the “inhibitory effect on BTK C481S kinase (conclusion)” value (BTK C481S) of the same compound?
A: The value was “significant inhibitory effect”.

Q: What about the IC50 (BTK wt) of the same compound?
A: The IC50 was 6.3 nM.

Q: And the “inhibitory effect on BTK wt kinase (conclusion)” value (BTK wt)?
A: The value was “significant inhibitory effect”.

Q: And the “degradation effect on BTK proteins in spleen of mice (conclusion)” value (BTK [1])?
A: The value was “significant degradation effect”.

Q: And the “degradation effect on BTK in Mino cells (conclusion)” value (BTK [2])?
A: Its value is “significant degradation effect”.

Q: What about the DC50 (BTK [2]; 48 hours, western blot) of the same compound?
A: The DC50 was 10.9 nM.
